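Test compounds were applied to cells in 96-well plates for 48 hours at 5 doses. At the TGI there is no net growth.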
Tests used:
Test in all cases: NCI-60 cell line screen, 48 h
T-47D breast = tested on: T-47D breast
DU-145 prostate = tested on: DU-145 prostate
HCT-15 colon = tested on: HCT-15 colon
MCF7 breast = tested on: MCF7 breast
LOX IMVI melanoma = tested on: LOX IMVI melanoma
IGROV1 ovarian = tested on: IGROV1 ovarian
A549 NSCLC = tested on: A549 NSCLC
NCI-H226 lung = tested on: NCI-H226 lung
MDA-MB-231 breast = tested on: MDA-MB-231 breast
COLO 205 colon = tested on: COLO 205 colon
SF-295 CNS = tested on: SF-295 CNS
MDA-N = tested on: MDA-N
OVCAR-3 ovarian = tested on: OVCAR-3 ovarian
HS 578T breast = tested on: HS 578T breast
NCI-H460 lung = tested on: NCI-H460 lung
CAKI-1 renal = tested on: CAKI-1 renal
ACHN renal = tested on: ACHN renal
KM12 colon = tested on: KM12 colon
RPMI-8226 leukemia = tested on: RPMI-8226 leukemia
HCC-2998 colon = tested on: HCC-2998 colon
MDA-MB-435 = tested on: MDA-MB-435
SK-MEL-2 melanoma = tested on: SK-MEL-2 melanoma
NCI/ADR-RES ovarian = tested on: NCI/ADR-RES ovarian
MALME-3M melanoma = tested on: MALME-3M melanoma
SK-MEL-28 melanoma = tested on: SK-MEL-28 melanoma
OVCAR-8 ovarian = tested on: OVCAR-8 ovarian
786-0 renal = tested on: 786-0 renal
NCI-H23 lung = tested on: NCI-H23 lung
CCRF-CEM leukemia = tested on: CCRF-CEM leukemia
MOLT-4 leukemia = tested on: MOLT-4 leukemia
UO-31 renal = tested on: UO-31 renal
HOP-62 NSCLC = tested on: HOP-62 NSCLC
NCI-H522 lung = tested on: NCI-H522 lung
HT29 colon = tested on: HT29 colon
SK-OV-3 ovarian = tested on: SK-OV-3 ovarian
M14 melanoma = tested on: M14 melanoma
U251 CNS = tested on: U251 CNS
SR leukemia = tested on: SR leukemia
PC-3 prostate = tested on: PC-3 prostate
HOP-92 NSCLC = tested on: HOP-92 NSCLC
A498 renal = tested on: A498 renal
K-562 leukemia = tested on: K-562 leukemia
OVCAR-5 ovarian = tested on: OVCAR-5 ovarian
SW-620 colon = tested on: SW-620 colon
UACC-62 melanoma = tested on: UACC-62 melanoma
SF-268 CNS = tested on: SF-268 CNS
OVCAR-4 ovarian = tested on: OVCAR-4 ovarian
UACC-257 melanoma = tested on: UACC-257 melanoma
TK-10 renal = tested on: TK-10 renal
EKVX NSCLC = tested on: EKVX NSCLC
SNB-75 CNS = tested on: SNB-75 CNS
SNB-19 CNS = tested on: SNB-19 CNS
SN12C renal = tested on: SN12C renal
HCT-116 colon = tested on: HCT-116 colon
SK-MEL-5 melanoma = tested on: SK-MEL-5 melanoma
BT-549 breast = tested on: BT-549 breast
SF-539 CNS = tested on: SF-539 CNS
HL-60(TB) leukemia = tested on: HL-60(TB) leukemia
RXF 393 renal = tested on: RXF 393 renal

With COc1ccc2c(c1)CCc1c-2n(CCN(C)C)c2ccc(OC)cc12 the TGI (T-47D breast) was 85.4 µM, the TGI (DU-145 prostate) was > 100 µM and the TGI (HCT-15 colon) was > 100 µM. For the same compound, the TGI (MCF7 breast) was 69.9 µM, the TGI (LOX IMVI melanoma) was > 100 µM and the TGI (IGROV1 ovarian) was 79.5 µM. For the same compound, the TGI (A549 NSCLC) was > 100 µM, the TGI (NCI-H226 lung) was 10.6 µM and the TGI (MDA-MB-231 breast) was > 100 µM. The TGI (COLO 205 colon) was > 100 µM, the TGI (SF-295 CNS) was > 100 µM and the TGI (MDA-N) was 95.2 µM. The TGI (OVCAR-3 ovarian) was > 100 µM, the TGI (HS 578T breast) was 77 µM and the TGI (NCI-H460 lung) was > 100 µM. The TGI (CAKI-1 renal) was > 100 µM, the TGI (ACHN renal) was > 100 µM and the TGI (KM12 colon) was 86.7 µM. The TGI (RPMI-8226 leukemia) was 65.9 µM, the TGI (HCC-2998 colon) was > 100 µM and the TGI (MDA-MB-435) was 32.6 µM. The TGI (SK-MEL-2 melanoma) was 40 µM, the TGI (NCI/ADR-RES ovarian) was 46.1 µM and the TGI (MALME-3M melanoma) was 53.5 µM. The TGI (SK-MEL-28 melanoma) was 33.6 µM, the TGI (OVCAR-8 ovarian) was 51 µM and the TGI (786-0 renal) was > 100 µM. For the same compound, the TGI (NCI-H23 lung) was 50.2 µM, the TGI (CCRF-CEM leukemia) was 9.5 µM and the TGI (MOLT-4 leukemia) was 59.1 µM. The TGI (UO-31 renal) was 47.8 µM, the TGI (HOP-62 NSCLC) was 43.1 µM and the TGI (NCI-H522 lung) was 75.9 µM. For the same compound, the TGI (HT29 colon) was > 100 µM, the TGI (SK-OV-3 ovarian) was 87.1 µM and the TGI (M14 melanoma) was > 100 µM. For the same compound, the TGI (U251 CNS) was 78.7 µM, the TGI (SR leukemia) was > 100 µM and the TGI (PC-3 prostate) was 46 µM. The TGI (HOP-92 NSCLC) was > 100 µM, the TGI (A498 renal) was 41.1 µM and the TGI (K-562 leukemia) was > 100 µM. The TGI (OVCAR-5 ovarian) was 51.6 µM, the TGI (SW-620 colon) was 74.5 µM and the TGI (UACC-62 melanoma) was > 100 µM. For the same compound, the TGI (SF-268 CNS) was > 100 µM, the TGI (OVCAR-4 ovarian) was 68.7 µM and the TGI (UACC-257 melanoma) was > 100 µM. For the same compound, the TGI (TK-10 renal) was 80.3 µM, the TGI (EKVX NSCLC) was > 100 µM and the TGI (SNB-75 CNS) was 76.5 µM. For the same compound, the TGI (SNB-19 CNS) was 36.5 µM, the TGI (SN12C renal) was > 100 µM and the TGI (HCT-116 colon) was > 100 µM. The TGI (SK-MEL-5 melanoma) was > 100 µM and the TGI (BT-549 breast) was > 100 µM.

For CC(C)(C)N1Cc2ccccc2/C(=C/Sc2ccccc2)C1=O, the TGI (SF-539 CNS) was 24.3 µM, the TGI (T-47D breast) was 45.3 µM and the TGI (DU-145 prostate) was 32.7 µM. It also gave a TGI (HCT-15 colon) of 37 µM, a TGI (MCF7 breast) of 24.3 µM and a TGI (LOX IMVI melanoma) of 11.3 µM. The TGI (IGROV1 ovarian) was 24 µM, the TGI (A549 NSCLC) was 37.6 µM and the TGI (NCI-H226 lung) was 25.9 µM. For the same compound, the TGI (MDA-MB-231 breast) was 33.9 µM, the TGI (COLO 205 colon) was 39 µM and the TGI (SF-295 CNS) was 33.8 µM. For the same compound, the TGI (MDA-N) was 21.8 µM, the TGI (OVCAR-3 ovarian) was 25.1 µM and the TGI (HS 578T breast) was 41.2 µM. For the same compound, the TGI (NCI-H460 lung) was 30 µM, the TGI (CAKI-1 renal) was 30.7 µM and the TGI (ACHN renal) was 32 µM. The TGI (KM12 colon) was 31.4 µM, the TGI (RPMI-8226 leukemia) was 26 µM and the TGI (HCC-2998 colon) was 34.4 µM. For the same compound, the TGI (MDA-MB-435) was 20.1 µM, the TGI (SK-MEL-2 melanoma) was 31.4 µM and the TGI (NCI/ADR-RES ovarian) was 33.6 µM. It also gave a TGI (MALME-3M melanoma) of 28.7 µM, a TGI (SK-MEL-28 melanoma) of 33.7 µM and a TGI (OVCAR-8 ovarian) of 22.3 µM. The TGI (HL-60(TB) leukemia) was 39.8 µM, the TGI (786-0 renal) was 24.8 µM and the TGI (NCI-H23 lung) was 24.2 µM. The TGI (CCRF-CEM leukemia) was > 100 µM, the TGI (MOLT-4 leukemia) was 48.4 µM and the TGI (UO-31 renal) was 24.8 µM. It also gave a TGI (HOP-62 NSCLC) of 33.8 µM, a TGI (NCI-H522 lung) of 11.4 µM and a TGI (HT29 colon) of 35.6 µM. The TGI (SK-OV-3 ovarian) was 31.2 µM, the TGI (M14 melanoma) was 25.2 µM and the TGI (U251 CNS) was 27.3 µM. For the same compound, the TGI (SR leukemia) was > 39.4 µM, the TGI (PC-3 prostate) was 26.6 µM and the TGI (HOP-92 NSCLC) was 27.8 µM. The TGI (A498 renal) was 35.4 µM, the TGI (K-562 leukemia) was > 100 µM and the TGI (OVCAR-5 ovarian) was 39.8 µM. It also gave a TGI (RXF 393 renal) of 34 µM, a TGI (SW-620 colon) of 27.4 µM and a TGI (UACC-62 melanoma) of 24.3 µM. It also gave a TGI (SF-268 CNS) of 20.2 µM, a TGI (OVCAR-4 ovarian) of 19.6 µM and a TGI (UACC-257 melanoma) of 31.2 µM. For the same compound, the TGI (TK-10 renal) was 34.8 µM, the TGI (EKVX NSCLC) was 34.2 µM and the TGI (SNB-75 CNS) was 31.9 µM. It also gave a TGI (SNB-19 CNS) of 30.9 µM, a TGI (SN12C renal) of 23.8 µM and a TGI (HCT-116 colon) of 19.8 µM. The TGI (SK-MEL-5 melanoma) was 20.2 µM and the TGI (BT-549 breast) was 20.1 µM.

Reference: PubChem BioAssay (NCI)
